These results are taken from patent US20080234276A1, “Heterocyclic Triazines as Hypoxic Selective Protein Kinase Inhibitors” (SENTINEL ONCOLOGY LIMITED, priority 2005, published 2008).

Structures are written as SMILES.

What all share (format): biochemical
The target of one test is T1, CHK1 (h) (Homo sapiens, UniProt O14757).
T1 construct: purchased Upstate Ltd
T1 sequence (O14757 1-476): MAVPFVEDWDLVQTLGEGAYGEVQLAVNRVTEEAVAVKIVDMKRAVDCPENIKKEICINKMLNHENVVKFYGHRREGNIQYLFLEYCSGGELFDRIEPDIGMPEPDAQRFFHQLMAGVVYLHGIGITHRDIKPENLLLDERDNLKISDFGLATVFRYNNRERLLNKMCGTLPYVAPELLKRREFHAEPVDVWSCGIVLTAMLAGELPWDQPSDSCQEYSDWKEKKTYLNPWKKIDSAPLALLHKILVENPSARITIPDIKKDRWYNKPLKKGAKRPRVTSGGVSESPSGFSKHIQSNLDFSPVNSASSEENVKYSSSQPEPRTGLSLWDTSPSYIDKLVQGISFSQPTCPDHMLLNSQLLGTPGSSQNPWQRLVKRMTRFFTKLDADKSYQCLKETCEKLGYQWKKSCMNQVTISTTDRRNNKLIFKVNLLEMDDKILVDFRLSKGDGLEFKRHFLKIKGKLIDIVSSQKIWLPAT
The experiment in a line: CHK1 (h) kinase assay (Upstate, 33P-ATP filtermat). The note with it: 100 uM of inhibitor; ATP 90 uM. As to the method: (§1) The compounds of the invention prepared in Examples 1-32 were tested for kinase inhibition against a range of common protein kinases. All kinase assays were conducted at Upstate Ltd, Gemini Crescent, Dundee Technology Park, Dundee, DD2 1SW, UK in accordance with its standard protocols as follows:
In a final reaction volume of 25 μl, CHK1 (h) (5-10 mU) is incubated with 8 mM MOPS pH 7.0, 0.2 mM EDTA, 200 μM […], 10 mM MgAcetate and […]-33P-ATP] (specific activity approx. 500 cpm/pmol, concentration as required). The reaction is initiated by the addition of the MgATP mix. After incubation for 40 minutes at room temperature, the reaction is stopped by the addition of 5 μl of a 3% phosphoric acid solution. 10 μl of the reaction is then spotted onto a P30 filtermat and washed three times for 5 minutes in 75 mM phosphoric acid and once in methanol prior to drying and scintillation counting.
(§2) Data for compounds. ATP concentrations are: Arg=45 uM; abl=45 uM; AuroraA=15 uM; Chk1=90 uM; KDR=90 uM; P70S6=15 uM. Figures represent the % inhibition when tested at 100 uM of inhibitor.

Another test has as its target T2, Abl (h) (Homo sapiens, UniProt P00519).
T2 construct: purchased Upstate Ltd
The experiment in a line: Abl (h) kinase assay (Upstate, 33P-ATP filtermat). The note with it: 100 uM of inhibitor; ATP 45 uM. As to the method:
as §1
(§3) In a final reaction volume of 25 μl, Abl (h) (5-10 mU) is incubated with 8 mM MOPS pH 7.0, 0.2 mM EDTA, 50 μM EAIYAAPFAKKK, 10 mM MgAcetate and [[…]-33P-ATP] (specific activity approx. 500 cpm/pmol, concentration as required). The reaction is initiated by the addition of the MgATP mix. After incubation for 40 minutes at room temperature, the reaction is stopped by the addition of 5 μl of a 3% phosphoric acid solution. 10 μl of the reaction is then spotted onto a P30 filtermat and washed three times for 5 minutes in 75 mM phosphoric acid and once in methanol prior to drying and scintillation counting.
as §2

The next test addresses T3, Arg (h) (Homo sapiens, UniProt P42684).
T3 construct: purchased Upstate Ltd
The experiment in a line: Arg (h) kinase assay (Upstate, 33P-ATP filtermat). The note with it: 100 uM of inhibitor; ATP 45 uM. The procedure: as §1
as §3, with “Arg” for “Abl”
as §2

The next test concerns the target T4, Aurora-A (h) (Homo sapiens, UniProt O14965).
T4 construct: purchased Upstate Ltd
T4 sequence (O14965 1-403): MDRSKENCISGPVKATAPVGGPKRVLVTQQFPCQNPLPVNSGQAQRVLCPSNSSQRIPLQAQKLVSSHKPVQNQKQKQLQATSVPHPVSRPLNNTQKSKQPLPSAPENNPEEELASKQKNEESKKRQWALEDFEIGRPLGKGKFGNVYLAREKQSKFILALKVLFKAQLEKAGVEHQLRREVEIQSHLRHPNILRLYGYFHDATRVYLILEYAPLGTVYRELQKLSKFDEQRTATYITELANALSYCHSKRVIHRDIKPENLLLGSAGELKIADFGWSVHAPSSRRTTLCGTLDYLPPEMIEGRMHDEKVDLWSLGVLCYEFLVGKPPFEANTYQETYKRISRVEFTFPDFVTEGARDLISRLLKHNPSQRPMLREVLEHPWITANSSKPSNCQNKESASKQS
The experiment in a line: Aurora-A (h) kinase assay (Upstate, 33P-ATP filtermat). The settings on record: 100 uM of inhibitor, ATP 15 uM; for inhibition at 100 µM: read-out: AuroraA (h) % inhibition. As to the method: as §1
In a final reaction volume of 25 μl, Aurora-A (h) (5-10 mU) is incubated with 8 mM MOPS pH 7.0, 0.2 mM EDTA, 200 μM LRRASLG (Kemptide), 10 mM MgAcetate and […]-33P-ATP] (specific activity approx. 500 cpm/pmol, concentration as required). The reaction is initiated by the addition of the MgATP mix. After incubation for 40 minutes at room temperature, the reaction is stopped by the addition of 5 μl of a 3% phosphoric acid solution. 10 μl of the reaction is then spotted onto a P30 filtermat and washed three times for 5 minutes in 50 mM phosphoric acid and once in methanol prior to drying and scintillation counting.
as §2

Another test concerns the target T5, p70S6K (h) (Homo sapiens, UniProt P23443).
T5 construct: purchased Upstate Ltd
The experiment in a line: p70S6K (h) kinase assay (Upstate, 33P-ATP filtermat). The settings on record: 100 uM of inhibitor, ATP 15 uM; for inhibition at 100 µM: read-out: P70S6 (h) % inhibition. As to the method: as §1
as §3, with “μl, p70S6K” for “μl, Abl”, “EDTA, 100” for “EDTA, 50”, “μM KKRNRTLTV,” for “μM EAIYAAPFAKKK,”
as §2

Another test concerns the target T6, KDR (h) (Homo sapiens, UniProt P35968).
T6 construct: purchased Upstate Ltd
The test can be described thus: KDR (h) kinase assay (Upstate, 33P-ATP filtermat). The note with it: 100 uM of inhibitor; ATP 90 uM. The procedure: as §1
as §3, with “KDR” for “Abl”, “0.33 mg/ml myelin basic protein,” for “50 μM EAIYAAPFAKKK,”
as §2

T5 sequence (P23443 whole entry): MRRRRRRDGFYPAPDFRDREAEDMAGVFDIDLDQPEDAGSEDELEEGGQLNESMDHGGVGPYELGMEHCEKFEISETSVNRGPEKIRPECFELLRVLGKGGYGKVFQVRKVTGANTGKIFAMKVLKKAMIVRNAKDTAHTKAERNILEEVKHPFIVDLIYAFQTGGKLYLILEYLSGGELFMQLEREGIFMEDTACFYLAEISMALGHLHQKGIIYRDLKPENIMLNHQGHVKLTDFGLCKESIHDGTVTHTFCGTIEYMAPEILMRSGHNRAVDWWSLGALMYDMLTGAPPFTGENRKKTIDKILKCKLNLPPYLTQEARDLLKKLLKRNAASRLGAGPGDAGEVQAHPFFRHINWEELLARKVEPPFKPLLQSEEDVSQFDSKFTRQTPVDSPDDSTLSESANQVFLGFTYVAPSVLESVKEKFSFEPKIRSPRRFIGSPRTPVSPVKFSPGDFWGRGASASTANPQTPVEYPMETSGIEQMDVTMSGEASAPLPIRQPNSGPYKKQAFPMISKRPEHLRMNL
T3 sequence (P42684 whole entry): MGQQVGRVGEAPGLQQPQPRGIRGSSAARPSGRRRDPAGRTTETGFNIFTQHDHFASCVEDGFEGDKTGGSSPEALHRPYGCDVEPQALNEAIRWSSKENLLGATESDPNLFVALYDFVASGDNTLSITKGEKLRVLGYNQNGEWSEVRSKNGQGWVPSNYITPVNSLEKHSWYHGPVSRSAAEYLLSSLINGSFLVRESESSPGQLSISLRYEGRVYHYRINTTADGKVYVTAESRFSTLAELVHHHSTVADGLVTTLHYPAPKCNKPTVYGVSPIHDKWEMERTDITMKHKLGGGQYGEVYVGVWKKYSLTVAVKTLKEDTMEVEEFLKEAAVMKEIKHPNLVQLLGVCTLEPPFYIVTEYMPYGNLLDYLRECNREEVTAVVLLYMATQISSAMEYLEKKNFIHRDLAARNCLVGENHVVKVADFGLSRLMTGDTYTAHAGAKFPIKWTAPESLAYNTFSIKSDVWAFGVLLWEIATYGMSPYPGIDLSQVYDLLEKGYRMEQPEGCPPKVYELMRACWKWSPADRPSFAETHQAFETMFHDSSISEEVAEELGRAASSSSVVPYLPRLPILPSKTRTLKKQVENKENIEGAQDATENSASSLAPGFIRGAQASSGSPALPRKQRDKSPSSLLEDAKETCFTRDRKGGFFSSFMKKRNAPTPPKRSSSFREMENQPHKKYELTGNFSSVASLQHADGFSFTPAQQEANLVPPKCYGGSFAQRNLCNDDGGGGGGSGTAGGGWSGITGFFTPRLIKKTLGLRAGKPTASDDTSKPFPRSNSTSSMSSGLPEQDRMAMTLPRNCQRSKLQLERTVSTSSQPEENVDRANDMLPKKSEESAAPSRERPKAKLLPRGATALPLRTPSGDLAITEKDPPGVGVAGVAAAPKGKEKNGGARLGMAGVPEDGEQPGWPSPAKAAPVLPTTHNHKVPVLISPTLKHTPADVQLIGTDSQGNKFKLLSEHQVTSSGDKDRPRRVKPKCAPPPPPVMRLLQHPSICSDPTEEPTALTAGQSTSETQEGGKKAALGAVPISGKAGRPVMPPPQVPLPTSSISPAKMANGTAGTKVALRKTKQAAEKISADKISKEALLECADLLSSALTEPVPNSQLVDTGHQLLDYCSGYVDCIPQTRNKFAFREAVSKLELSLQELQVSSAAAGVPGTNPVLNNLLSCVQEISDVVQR
T2 sequence (P00519 whole entry): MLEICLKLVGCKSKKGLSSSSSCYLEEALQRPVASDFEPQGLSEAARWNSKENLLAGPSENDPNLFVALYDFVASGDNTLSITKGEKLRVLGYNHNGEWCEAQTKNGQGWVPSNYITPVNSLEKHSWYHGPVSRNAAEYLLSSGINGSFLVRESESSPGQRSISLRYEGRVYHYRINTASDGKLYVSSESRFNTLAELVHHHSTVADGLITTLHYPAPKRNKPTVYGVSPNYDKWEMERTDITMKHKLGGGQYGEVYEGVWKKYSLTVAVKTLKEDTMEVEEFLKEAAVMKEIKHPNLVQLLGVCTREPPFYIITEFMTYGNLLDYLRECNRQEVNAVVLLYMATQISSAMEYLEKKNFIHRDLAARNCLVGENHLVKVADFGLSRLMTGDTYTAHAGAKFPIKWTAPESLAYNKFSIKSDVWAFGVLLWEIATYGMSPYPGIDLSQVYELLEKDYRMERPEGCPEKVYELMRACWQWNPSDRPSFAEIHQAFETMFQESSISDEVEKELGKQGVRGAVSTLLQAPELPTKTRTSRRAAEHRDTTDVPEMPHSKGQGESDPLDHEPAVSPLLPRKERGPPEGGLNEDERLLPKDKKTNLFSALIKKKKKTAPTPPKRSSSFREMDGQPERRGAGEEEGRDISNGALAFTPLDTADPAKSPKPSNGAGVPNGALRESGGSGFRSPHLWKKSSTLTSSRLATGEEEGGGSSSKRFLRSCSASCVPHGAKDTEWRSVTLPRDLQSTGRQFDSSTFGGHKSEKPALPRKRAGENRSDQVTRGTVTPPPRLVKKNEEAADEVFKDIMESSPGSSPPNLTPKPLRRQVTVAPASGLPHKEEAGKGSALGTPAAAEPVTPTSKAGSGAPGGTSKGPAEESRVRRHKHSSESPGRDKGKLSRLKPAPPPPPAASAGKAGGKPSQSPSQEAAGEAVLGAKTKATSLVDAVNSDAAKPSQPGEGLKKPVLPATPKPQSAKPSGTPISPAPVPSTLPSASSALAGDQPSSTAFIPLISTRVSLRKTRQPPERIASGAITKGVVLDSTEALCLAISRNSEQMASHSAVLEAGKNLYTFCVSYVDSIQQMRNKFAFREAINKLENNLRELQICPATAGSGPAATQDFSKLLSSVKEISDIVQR
T6 sequence (P35968 20-1356): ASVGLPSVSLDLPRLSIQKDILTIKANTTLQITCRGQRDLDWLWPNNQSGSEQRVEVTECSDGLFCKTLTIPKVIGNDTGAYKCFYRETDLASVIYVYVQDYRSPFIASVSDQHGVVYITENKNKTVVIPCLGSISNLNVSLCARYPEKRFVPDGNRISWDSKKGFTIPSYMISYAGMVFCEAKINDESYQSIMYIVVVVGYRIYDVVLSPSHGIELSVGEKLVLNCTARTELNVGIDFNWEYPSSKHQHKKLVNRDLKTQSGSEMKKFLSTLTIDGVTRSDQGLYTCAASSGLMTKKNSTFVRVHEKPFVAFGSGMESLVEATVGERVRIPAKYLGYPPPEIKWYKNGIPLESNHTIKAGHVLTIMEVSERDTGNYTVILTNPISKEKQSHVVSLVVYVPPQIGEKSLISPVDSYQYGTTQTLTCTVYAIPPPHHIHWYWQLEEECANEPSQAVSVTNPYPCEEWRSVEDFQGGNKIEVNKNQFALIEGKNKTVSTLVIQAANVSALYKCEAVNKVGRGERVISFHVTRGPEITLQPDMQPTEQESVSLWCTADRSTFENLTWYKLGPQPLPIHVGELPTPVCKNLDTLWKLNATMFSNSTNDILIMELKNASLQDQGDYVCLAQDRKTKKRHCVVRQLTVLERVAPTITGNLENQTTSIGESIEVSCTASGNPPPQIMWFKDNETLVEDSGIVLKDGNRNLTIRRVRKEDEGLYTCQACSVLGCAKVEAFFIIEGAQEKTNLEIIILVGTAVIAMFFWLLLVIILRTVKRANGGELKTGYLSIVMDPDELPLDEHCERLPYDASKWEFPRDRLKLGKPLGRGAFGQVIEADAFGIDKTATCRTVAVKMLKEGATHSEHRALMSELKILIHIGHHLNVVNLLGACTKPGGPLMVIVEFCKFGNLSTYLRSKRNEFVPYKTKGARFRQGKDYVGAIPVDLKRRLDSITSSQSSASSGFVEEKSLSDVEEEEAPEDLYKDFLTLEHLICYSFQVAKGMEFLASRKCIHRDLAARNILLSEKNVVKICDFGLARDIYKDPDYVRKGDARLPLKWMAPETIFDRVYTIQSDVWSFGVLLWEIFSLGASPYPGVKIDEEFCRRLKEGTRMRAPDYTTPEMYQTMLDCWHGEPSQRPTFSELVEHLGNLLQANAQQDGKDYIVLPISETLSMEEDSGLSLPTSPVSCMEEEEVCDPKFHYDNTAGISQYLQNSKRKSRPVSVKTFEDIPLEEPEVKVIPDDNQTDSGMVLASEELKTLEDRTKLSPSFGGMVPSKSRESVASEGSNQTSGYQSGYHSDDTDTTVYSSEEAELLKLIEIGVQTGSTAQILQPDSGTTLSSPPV

Regarding `c1cncc(Nc2nnc3ccccc3n2)c1` [Example 3, Benzo[1,2,4]triazin-3-yl-pyridin-3-yl-amine], the inhibition at 100 µM at CHK1 (h) came out at 21%; on Abl (h), 65%; against Arg (h), 71%; on Aurora-A (h), 68%; on p70S6K (h) it was 9%.

In the case of `[O-][n+]1nc(Nc2ccc(N3CCNCC3)cc2)nc2ccccc21` [Example 5, (1-Oxy-benzo[1,2,4]triazin-3-yl)-(4-piperazin-1-yl-phenyl)-amine], at CHK1 (h), the “Chk1 (h) % inhibition” value is reported as 7%. Moreover, the “Abl (h) % inhibition” value at Abl (h) worked out at 83%. In addition, at Arg (h), the “Arg (h) % inhibition” value was determined as 78%. For the same compound, the “AuroraA (h) % inhibition” value on Aurora-A (h) amounted to 24%.

As for `c1ccc2nc(Nc3ccc(N4CCNCC4)cc3)nnc2c1` [Example 6, Benzo[1,2,4]triazin-3-yl-(4-piperazin-1-yl-phenyl)-amine], the inhibition at 100 µM on CHK1 (h) came out at 33%; on Abl (h), 89%; on Arg (h), 92%; at Aurora-A (h), 41%.

Turning to `Nc1nc2ccc(-c3cn[nH]c3)cc2[n+]([O-])n1` [Example 7, 1-Oxy-7-(1H-pyrazol-4-yl)-benzo[1,2,4]triazin-3-ylamine], the “Chk1 (h) % inhibition” value at CHK1 (h) is 31%. Besides, at Abl (h), the “Abl (h) % inhibition” value came out at 86%. The “Arg (h) % inhibition” value at Arg (h) turned out to be 81%. Moreover, the “KDR (h) % inhibition” value at KDR (h) is 98%. Further, at Aurora-A (h), the “AuroraA (h) % inhibition” value was 98%. Moreover, the “P70S6 (h) % inhibition” value on p70S6K (h) is 99%.

As for `Nc1nnc2cc(-c3cn[nH]c3)ccc2n1` [Example 8, 7-(1H-Pyrazol-4-yl)-benzo[1,2,4]triazin-3-ylamine], the inhibition at 100 µM is 26% on CHK1 (h); 87% against Abl (h); 82% against Arg (h); 96% at KDR (h); 100% at Aurora-A (h); 97% on p70S6K (h).

On to `Cc1cc(Nc2nnc3ccccc3n2)n[nH]1` [Example 11, Benzo[1,2,4]triazin-3-yl-(5-methyl-1H-pyrazol-3-yl)-amine], for which the inhibition at 100 µM at CHK1 (h) was 32%; at Abl (h), 36%; against Arg (h) it was 40%; at Aurora-A (h), 37%.

Consider `[O-][n+]1nc(Nc2ccc(N3CCNCC3)nc2)nc2ccccc21` [Example 20, (1-Oxy-benzo[1,2,4]triazin-3-yl)-(6-piperazin-1-yl-pyridin-3-yl)-amine], for which, at CHK1 (h), the “Chk1 (h) % inhibition” value is on record as 1%. Moreover, the “Abl (h) % inhibition” value on Abl (h) amounted to 72%. On Arg (h), the “Arg (h) % inhibition” value came to 77%. Besides, the “AuroraA (h) % inhibition” value at Aurora-A (h) turned out to be 52%.

For the compound `Clc1ccc2nnc(Nc3cccnc3)nc2c1` [Example 21, (6-Chloro-benzo[1,2,4]triazin-3-yl)-pyridin-3-yl-amine], the inhibition at 100 µM came out at 76% at Abl (h), 84% against Arg (h) and 58% on Aurora-A (h).

As for `c1ccc(-c2ccc3nnc(Nc4cccnc4)nc3c2)cc1` [Example 23, (6-Phenyl-benzo[1,2,4]triazin-3-yl)-pyridin-3-yl-amine], the inhibition at 100 µM against Abl (h) was found to be 80%; on Arg (h), 83%; on Aurora-A (h), 68%.

For orientation: inhibition means the relative decrease from the control value, in per cent.
